Converted amounts (≈) assume the structure as drawn. The source made the active and inactive calls. The rule behind the calls is not given here.
How the values were obtained:
[1] = Cytotoxicity against mouse NCTC clone 929 cells assessed as reduction in cell viability at 3.125 ug/ml after 24 hrs by CCK8 assay; assay type: cell-based; settings: nctc clone 929, 24 h, at 3.125 µg/mL
Staphylococcus aureus [2] = experiment: Antibacterial activity against Staphylococcus aureus ATCC29213 assessed as reduction in bacterial growth in presence of ferrous salt; assay type: functional
Staphylococcus aureus [3] = experiment: Antibacterial activity against methicillin-resistant Staphylococcus aureus N315 assessed as reduction in bacterial growth; assay type: functional
Staphylococcus aureus [4] = experiment: Antibacterial activity against Staphylococcus aureus ATCC29213 assessed as reduction in bacterial growth in presence of sodium salt; assay type: functional
Staphylococcus aureus [5] = experiment: Antibacterial activity against methicillin-resistant Staphylococcus aureus NCTC 10442 assessed as reduction in bacterial growth; assay type: functional
Staphylococcus aureus [6] = experiment: Antibacterial activity against methicillin-resistant Staphylococcus aureus NCTC 10442 assessed as reduction in bacterial growth in presence of ferric salt; assay type: functional
J774.A1 [7] = experiment: Cytotoxicity against mouse J774.A1 cells assessed as reduction in cell viability at 50 ug/ml after 24 hrs by CCK8 assay; assay type: cell-based; settings: j774.a1, 24 h, at 50 µg/mL
HEK293 [8] = experiment: Cytotoxicity against human HEK293 cells assessed as reduction in cell viability at 25 ug/ml after 24 hrs by CCK8 assay; assay type: cell-based; settings: hek293, 24 h, at 25 µg/mL
Staphylococcus aureus [9] = experiment: Antibacterial activity against methicillin-resistant Staphylococcus aureus NCTC 10442 assessed as reduction in bacterial growth in presence of ferrous salt; assay type: functional
HEK293 [10] = experiment: Cytotoxicity against human HEK293 cells assessed as reduction in cell viability at 50 ug/ml after 24 hrs by CCK8 assay; assay type: cell-based; settings: hek293, 24 h, at 50 µg/mL
HEK293 [11] = experiment: Cytotoxicity against human HEK293 cells assessed as reduction in cell viability at 6.25 ug/ml after 24 hrs by CCK8 assay; assay type: cell-based; settings: hek293, 24 h, at 6.25 µg/mL
Staphylococcus aureus [12] = experiment: Antibacterial activity against methicillin-resistant Staphylococcus aureus N315 assessed as reduction in bacterial growth in presence of sodium salt; assay type: functional
Staphylococcus aureus [13] = experiment: Antibacterial activity against methicillin-resistant Staphylococcus aureus NCTC 10442 assessed as reduction in bacterial growth in presence of calcium salt; assay type: functional
Staphylococcus aureus [14] = experiment: Antibacterial activity against Staphylococcus aureus ATCC29213 assessed as reduction in bacterial growth in presence of potassium salt; assay type: functional
Staphylococcus aureus [15] = experiment: Bactericidal activity against Staphylococcus aureus NCTC 10442 assessed as log reduction in bacterial growth at 8X MIC measured within 0.5 hr by time-kill kinetic assay; assay type: functional
Escherichia coli = experiment: Antibacterial activity against Escherichia coli ATCC25922 assessed as reduction in bacterial growth; assay type: functional
Staphylococcus aureus [16] = experiment: Antibacterial activity against Staphylococcus aureus ATCC29213 assessed as reduction in bacterial growth in presence of magnesium salt; assay type: functional
Staphylococcus aureus [17] = experiment: Antibacterial activity against methicillin-resistant Staphylococcus aureus N315 assessed as reduction in bacterial growth in presence of potassium salt; assay type: functional
[18] = Cytotoxicity against mouse NCTC clone 929 cells assessed as reduction in cell viability at 12.5 ug/ml after 24 hrs by CCK8 assay; assay type: cell-based; settings: nctc clone 929, 24 h, at 12.5 µg/mL
Staphylococcus aureus [19] = experiment: Antibacterial activity against Staphylococcus aureus ATCC29213 assessed as reduction in bacterial growth in presence of ferric salt; assay type: functional
Staphylococcus aureus [20] = experiment: Bactericidal activity against Staphylococcus aureus NCTC 10442 assessed as log reduction in bacterial growth at 4X MIC measured within 0.5 hr by time-kill kinetic assay; assay type: functional; settings: time hrs <=0.5
J774.A1 [21] = experiment: Cytotoxicity against mouse J774.A1 cells assessed as reduction in cell viability at 25 ug/ml after 24 hrs by CCK8 assay; assay type: cell-based; settings: j774.a1, 24 h, at 25 µg/mL
Staphylococcus aureus [22] = experiment: Antibacterial activity against methicillin-resistant Staphylococcus aureus N315 assessed as reduction in bacterial growth in presence of ferric salt; assay type: functional
Staphylococcus aureus [23] = experiment: Bactericidal activity against Staphylococcus aureus NCTC 10442 assessed as log reduction in bacterial growth at 2X MIC measured within 24 hr by time-kill kinetic assay; assay type: functional
Staphylococcus aureus [24] = experiment: In vivo antibacterial activity against Staphylococcus aureus ATCC29213 in mouse bacterial keratitis model assessed as log reduction in bacterial load in infected cornea at 0.5%,TOP after 24 hour infection; assay type: functional, organism-based
Staphylococcus aureus [25] = experiment: Antibacterial activity against methicillin-resistant Staphylococcus aureus NCTC 10442 assessed as reduction in bacterial growth in presence of magnesium salt; assay type: functional
Staphylococcus aureus [26] = experiment: Antibacterial activity against methicillin-resistant Staphylococcus aureus N315 assessed as reduction in bacterial growth in presence of magnesium salt; assay type: functional
Cell membrane = experiment: Induction of membrane disruption in […] assessed as increase in red fluorescence at 12.48 ug/ml by SYTO 9/PI staining based flourescence microscopy method; assay type: functional; settings: dose 12.48 µg/ml
Staphylococcus aureus [27] = experiment: Antibacterial activity against methicillin-resistant Staphylococcus aureus N315 assessed as reduction in bacterial growth in presence of ferrous salt; assay type: functional
Staphylococcus aureus [28] = experiment: Antibacterial activity against Staphylococcus aureus ATCC29213 assessed as reduction in bacterial growth; assay type: functional
Staphylococcus aureus [29] = experiment: Antibacterial activity against methicillin-resistant Staphylococcus aureus NCTC 10442 assessed as reduction in bacterial growth in presence of potassium salt; assay type: functional
HEK293 [30] = experiment: Cytotoxicity against human HEK293 cells assessed as reduction in cell viability at 3.125 ug/ml after 24 hrs by CCK8 assay; assay type: cell-based; settings: hek293, 24 h, at 3.125 µg/mL
J774.A1 [31] = experiment: Cytotoxicity against mouse J774.A1 cells assessed as reduction in cell viability at 12.5 ug/ml after 24 hrs by CCK8 assay; assay type: cell-based; settings: j774.a1, 24 h, at 12.5 µg/mL
[32] = Hemolytic activity in rabbit erythrocytes assessed as concentration required to cause 50% hemolysis; assay type: ADME, cell-based, Oryctolagus cuniculus, Erythrocyte
Staphylococcus aureus [33] = experiment: Antibacterial activity against methicillin-resistant Staphylococcus aureus NCTC 10442 assessed as reduction in bacterial growth in presence of zinc salt; assay type: functional
Staphylococcus aureus [34] = experiment: Antibacterial activity against Staphylococcus aureus ATCC29213 assessed as reduction in bacterial growth in presence of calcium salt; assay type: functional
[35] = Cytotoxicity against mouse NCTC clone 929 cells assessed as reduction in cell viability at 25 ug/ml after 24 hrs by CCK8 assay; assay type: cell-based; settings: nctc clone 929, 24 h, at 25 µg/mL
HEK293 [36] = experiment: Cytotoxicity against human HEK293 cells assessed as reduction in cell viability at 12.5 ug/ml after 24 hrs by CCK8 assay; assay type: cell-based; settings: hek293, 24 h, at 12.5 µg/mL
[37] = Cytotoxicity against mouse NCTC clone 929 cells assessed as reduction in cell viability at 50 ug/ml after 24 hrs by CCK8 assay; assay type: cell-based; settings: nctc clone 929, 24 h, at 50 µg/mL
Staphylococcus aureus [38] = experiment: Antibacterial activity against methicillin-resistant Staphylococcus aureus N315 assessed as reduction in bacterial growth in presence of zinc salt; assay type: functional
Staphylococcus aureus [39] = experiment: Bactericidal activity against Staphylococcus aureus NCTC 10442 assessed as log reduction in bacterial growth at 1X MIC measured within 24 hr by time-kill kinetic assay; assay type: functional
Staphylococcus aureus [40] = experiment: Antibacterial activity against methicillin-resistant Staphylococcus aureus N315 assessed as reduction in bacterial growth in presence of calcium salt; assay type: functional
Staphylococcus aureus [41] = experiment: Antibacterial activity against methicillin-resistant Staphylococcus aureus NCTC 10442 assessed as reduction in bacterial growth in presence of sodium salt; assay type: functional
J774.A1 [42] = experiment: Cytotoxicity against mouse J774.A1 cells assessed as reduction in cell viability at 6.25 ug/ml after 24 hrs by CCK8 assay; assay type: cell-based; settings: j774.a1, 24 h, at 6.25 µg/mL
J774.A1 [43] = experiment: Cytotoxicity against mouse J774.A1 cells assessed as reduction in cell viability at 3.125 ug/ml after 24 hrs by CCK8 assay; assay type: cell-based; settings: j774.a1, 24 h, at 3.125 µg/mL
Staphylococcus aureus [44] = experiment: Induction of drug resistance in Staphylococcus aureus ATCC29213 assessed as reduction in bacterial growth at 0.5 times MIC measured after 24 hr; assay type: functional, organism-based
[45] = Cytotoxicity against mouse NCTC clone 929 cells assessed as reduction in cell viability at 6.25 ug/ml after 24 hrs by CCK8 assay; assay type: cell-based; settings: nctc clone 929, 24 h, at 6.25 µg/mL
Staphylococcus aureus [46] = experiment: Antibacterial activity against Staphylococcus aureus ATCC29213 assessed as reduction in bacterial growth in presence of zinc salt; assay type: functional

**Q.** For `CC(C)=CCC/C(C)=C/Cn1cc(CC(=O)NCCN(CCNC(=N)N)CCNC(=N)N)c2ccccc21`, which Activity [1] is on record?
**A.** 87.85%

**Q.** And the MIC (Staphylococcus aureus [2])?
**A.** 1.56 µg/mL

**Q.** What about the MIC (Staphylococcus aureus [3]) of the same molecule?
**A.** 1.56 µg/mL (≈ 2.98 µM)

**Q.** And the MIC (Staphylococcus aureus [4])?
**A.** 1.56 µg/mL

**Q.** And the MIC (Staphylococcus aureus [5])?
**A.** 1.56 µg/mL (≈ 2.98 µM)

**Q.** What about the MIC (Staphylococcus aureus [6]) of the same molecule?
**A.** 1.56 µg/mL

**Q.** And the Activity (J774.A1 [7])?
**A.** 56%

**Q.** And the Activity (HEK293 [8])?
**A.** 76.79%

**Q.** What about the MIC (Staphylococcus aureus [9]) of the same molecule?
**A.** 1.56 µg/mL

**Q.** And the Activity (HEK293 [10])?
**A.** 68.26%

**Q.** What about the Activity (HEK293 [11]) of the same molecule?
**A.** 92.66%

**Q.** What about the MIC (Staphylococcus aureus [12]) of the same molecule?
**A.** 1.56 µg/mL

**Q.** And the MIC (Staphylococcus aureus [13])?
**A.** 1.56 µg/mL

**Q.** What about the MIC (Staphylococcus aureus [14]) of the same molecule?
**A.** 1.56 µg/mL

**Q.** And the Activity (Staphylococcus aureus [15])?
**A.** 3 CFU

**Q.** And the MIC (Escherichia coli)?
**A.** 12.5 µg/mL (≈ 23.9 µM)

**Q.** And the MIC (Staphylococcus aureus [16])?
**A.** 1.56 µg/mL

**Q.** What about the MIC (Staphylococcus aureus [17]) of the same molecule?
**A.** 1.56 µg/mL

**Q.** What about the Activity [18] of the same molecule?
**A.** 72.66%

**Q.** And the MIC (Staphylococcus aureus [19])?
**A.** 1.56 µg/mL

**Q.** And the log reduction (Staphylococcus aureus [20])?
**A.** 3 log10 CFU/mL

**Q.** And the Activity (J774.A1 [21])?
**A.** 77.46%

**Q.** What about the MIC (Staphylococcus aureus [22]) of the same molecule?
**A.** 1.56 µg/mL

**Q.** And the Activity (Staphylococcus aureus [23])?
**A.** 3 CFU

**Q.** And the Activity (Staphylococcus aureus [24])?
**A.** Active

**Q.** And the MIC (Staphylococcus aureus [25])?
**A.** 1.56 µg/mL

**Q.** What about the MIC (Staphylococcus aureus [26]) of the same molecule?
**A.** 1.56 µg/mL

**Q.** And the Activity (Cell membrane)?
**A.** Active

**Q.** What about the MIC (Staphylococcus aureus [27]) of the same molecule?
**A.** 1.56 µg/mL

**Q.** What about the MIC (Staphylococcus aureus [28]) of the same molecule?
**A.** 1.56 µg/mL (≈ 2.98 µM)

**Q.** And the MIC (Staphylococcus aureus [29])?
**A.** 1.56 µg/mL

**Q.** What about the Activity (HEK293 [30]) of the same molecule?
**A.** 94.48%

**Q.** And the Activity (J774.A1 [31])?
**A.** 85.85%

**Q.** What about the HC50 [32] of the same molecule?
**A.** 226 µg/mL

**Q.** What about the MIC (Staphylococcus aureus [33]) of the same molecule?
**A.** 1.56 µg/mL

**Q.** What about the MIC (Staphylococcus aureus [34]) of the same molecule?
**A.** 1.56 µg/mL

**Q.** What about the Activity [35] of the same molecule?
**A.** 71.16%

**Q.** And the Activity (HEK293 [36])?
**A.** 84.69%

**Q.** What about the Activity [37] of the same molecule?
**A.** 64.79%

**Q.** And the MIC (Staphylococcus aureus [38])?
**A.** 1.56 µg/mL

**Q.** And the Activity (Staphylococcus aureus [39])?
**A.** 3 CFU

**Q.** What about the MIC (Staphylococcus aureus [40]) of the same molecule?
**A.** 1.56 µg/mL

**Q.** What about the MIC (Staphylococcus aureus [41]) of the same molecule?
**A.** 1.56 µg/mL

**Q.** What about the Activity (J774.A1 [42]) of the same molecule?
**A.** 95.8%

**Q.** And the Activity (J774.A1 [43])?
**A.** 100.34%

**Q.** And the Activity (Staphylococcus aureus [44])?
**A.** inactive

**Q.** What about the Activity [45] of the same molecule?
**A.** 79.43%

**Q.** And the MIC (Staphylococcus aureus [46])?
**A.** 1.56 µg/mL

Reference: ChEMBL document CHEMBL5036339, “Synthesis and biological evaluation of indole-based peptidomimetics as antibacterial agents against Gram-positive bacteria” (Eur J Med Chem, 2021)
